Ki and Km data for two molecules are collected here from ChEMBL document CHEMBL1139587, “Synthesis of an N-acyl sulfamate analog of luciferyl-AMP: a stable and potent inhibitor of firefly luciferase” (Bioorg Med Chem Lett, 2005).

The Ki is a measure of affinity in units of concentration, obtained from inhibition or displacement. Low values mean a stronger hold on the target, high ones a looser hold on the target. By Km is commonly meant the substrate concentration at which the rate is half of its maximum.

In series [1] the target is T1, Luciferin 4-monooxygenase (Luciola lateralis, UniProt Q01158).
T1 sequence (Q01158 whole entry): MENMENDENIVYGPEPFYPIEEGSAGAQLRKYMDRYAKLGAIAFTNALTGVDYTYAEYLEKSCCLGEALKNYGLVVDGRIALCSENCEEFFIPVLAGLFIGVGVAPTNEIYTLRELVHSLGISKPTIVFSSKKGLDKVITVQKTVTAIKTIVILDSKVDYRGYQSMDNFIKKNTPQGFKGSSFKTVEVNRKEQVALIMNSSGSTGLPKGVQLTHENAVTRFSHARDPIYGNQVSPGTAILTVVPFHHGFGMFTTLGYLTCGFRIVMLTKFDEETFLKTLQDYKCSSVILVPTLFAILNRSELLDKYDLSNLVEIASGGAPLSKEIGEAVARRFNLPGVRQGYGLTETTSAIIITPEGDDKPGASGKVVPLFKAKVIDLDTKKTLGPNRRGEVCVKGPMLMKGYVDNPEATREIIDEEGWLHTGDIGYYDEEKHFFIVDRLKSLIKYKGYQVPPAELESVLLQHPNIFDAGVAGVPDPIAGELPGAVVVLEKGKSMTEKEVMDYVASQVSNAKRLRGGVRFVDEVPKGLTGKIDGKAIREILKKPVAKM
In words: Inhibition constant against luciferase with respect to luciferyl-adenylate. On the set-up: species or system Aquatica lateralis.

In series [2] the target is T1, Luciferin 4-monooxygenase. The series is described as follows: Inhibition constant against luciferase with respect to natural substrate Mg-ATP. The arrangement: species or system Aquatica lateralis.
The target in series [3] is T1, Luciferin 4-monooxygenase. The series is described as follows: Inhibition constant against luciferase with respect to natural substrate luciferin. The arrangement: species or system Aquatica lateralis.
Substrate in series [4]: Nc1ncnc2c1ncn2C1O[C@H](COP(=O)(O)OC(=O)c2csc(-c3nc4ccc(O)cc4s3)n2)[C@@H](O)[C@H]1O
The series is described as follows: Binding affinity against luciferase. Particulars: Aquatica lateralis.

Consider `Nc1ncnc2c1ncn2[C@@H]1O[C@H](COS(=O)(=O)NC(=O)c2csc(-c3nc4ccc(O)cc4s3)n2)[C@@H](O)[C@H]1O`, for which the Ki turned out to be 340 nM in series [1], 41 nM in series [2] and 34 nM in series [3].

B1: Luciferin 4-monooxygenase (Luciola lateralis), Q01158 (protein)
chain: T1 sequence (Q01158 whole entry)
Turning to B1, the Km in series [4] is 4.7 µM.
